Patent US12673924B2, “Valiolamine derivatives as glucosidase inhibitors” (Emergent Product Development Gaithersburg Inc., priority 2021, dated 2026)

Each compound was assayed against T1, recombinant human GBA (Homo sapiens, UniProt P04062) (assay: Beta-glucocerebrosidase (GBA) inhibition assay). Conditions: 4-methylumbelliferyl-beta-D-pyranoside substrate, 4-PL curve fit.
T1 construct: purchased
T1 sequence (P04062 40-536): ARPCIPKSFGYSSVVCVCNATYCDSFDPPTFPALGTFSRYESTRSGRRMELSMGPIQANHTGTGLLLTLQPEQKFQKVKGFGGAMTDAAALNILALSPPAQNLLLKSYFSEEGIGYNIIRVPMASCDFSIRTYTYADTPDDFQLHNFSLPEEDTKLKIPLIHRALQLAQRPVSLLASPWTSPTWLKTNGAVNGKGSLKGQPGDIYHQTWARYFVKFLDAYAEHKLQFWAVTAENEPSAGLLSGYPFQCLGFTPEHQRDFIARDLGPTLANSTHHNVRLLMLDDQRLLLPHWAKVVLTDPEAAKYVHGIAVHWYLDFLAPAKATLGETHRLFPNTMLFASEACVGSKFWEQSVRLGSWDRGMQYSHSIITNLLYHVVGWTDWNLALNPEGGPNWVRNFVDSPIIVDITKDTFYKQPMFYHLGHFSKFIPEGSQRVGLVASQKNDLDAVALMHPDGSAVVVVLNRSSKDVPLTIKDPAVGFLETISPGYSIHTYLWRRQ
Assay type: biochemical
Protocol: Beta-glucocerebrosidase (GBA, also referred to glucosylceramidase): To analyze inhibitory effects of a test compound, commercially available recombinant human GBA was incubated with multiple dilutions of test compound for 60 minutes at 37° C. 4-methylumbelliferyl-beta-D-pyranoside was then introduced to the mixture as substrate. Following incubation for 60 minutes at 37° C., 1,4-methyllumbelliferone was generated, and the reaction was stopped with the stop solution (0.5 M glycine; 0.3 M NaOH, pH 10). 1,4-methyllumbelliferone was detected by fluorescence (excitation at 365 nm, emission at 440 nm). Relative fluorescence is compared to untreated enzymatic activity and test compound concentration is then plotted as a function of percent inhibition. The IC50 was determined using a 4-PL curve fit as the measure of relative inhibitory activity of each test compound (see Table 4).

Compound | IC50
O=[N+]([O-])c1cc(-n2cnnn2)ccc1NCCCCCCN[C@H]1C[C@](O)(CO)[C@@H](O)[C@H](O)[C@H]1O [Compound 4, (1S,2S,3R,4S,5S)-1-(hydroxymethyl)-5-((6-((2-nitro-4-(1H-tetrazol-1-yl)phenyl)amino)hexyl)amino)cyclohexane-1,2,3,4-tetraol] | > 1000 µM
O=[N+]([O-])c1cc(-n2nccn2)ccc1NCCCCCCN[C@H]1C[C@](O)(CO)[C@@H](O)[C@H](O)[C@H]1O [Compound 5, (1S,2S,3R,4S,5S)-1-(hydroxymethyl)-5-((6-((2-nitro-4-(2H-1,2,3-triazol-2-yl)phenyl)amino)hexyl)amino)cyclohexane-1,2,3,4-tetraol] | 143 µM
O=[N+]([O-])c1cc(-c2ncccn2)ccc1NCCCCCCN[C@H]1C[C@](O)(CO)[C@@H](O)[C@H](O)[C@H]1O [Compound 7, (1S,2S,3R,4S,5S)-1-(hydroxymethyl)-5-((6-((2-nitro-4-(pyrimidin-2-yl)phenyl)amino)hexyl)amino)cyclohexane-1,2,3,4-tetraol] | > 1000 µM
[N-]=[N+]=Nc1ccc(NCCCCN[C@H]2C[C@](O)(CO)[C@@H](O)[C@H](O)[C@H]2O)c([N+](=O)[O-])c1 [Compound 8, (1S,2S,3R,4S,5S)-5-((4-((4-azido-2-nitrophenyl)amino)butyl)amino)-1-(hydroxymethyl)cyclohexane-1,2,3,4-tetraol] | > 1000 µM
[N-]=[N+]=Nc1ccc(NCCOCCN[C@H]2C[C@](O)(CO)[C@@H](O)[C@H](O)[C@H]2O)c([N+](=O)[O-])c1 [Compound 10, (1S,2S,3R,4S,5S)-5-((2-(2-((4-azido-2-nitrophenyl)amino)ethoxy)ethyl)amino)-1-(hydroxymethyl)cyclohexane-1,2,3,4-tetraol] | > 1000 µM
O=C(O)CCCCN[C@H]1C[C@](O)(CO)[C@@H](O)[C@H](O)[C@H]1O [Compound 11, 5-(((1S,2S,3R,4S,5S)-2,3,4,5-tetrahydroxy-5-(hydroxymethyl)cyclohexyl)amino)pentanoic acid] | > 1000 µM
N[C@H]1C[C@](O)(CO)[C@@H](O)[C@H](O)[C@H]1O [Valiolamine] | > 1000 µM

The remaining lines, values ahead:

IC50 | Compound
139 µM | [N-]=[N+]=Nc1ccc(NCCCCCCN[C@H]2C[C@](O)(CO)[C@@H](O)[C@H](O)[C@H]2O)c([N+](=O)[O-])c1 [Compound 2, (1S,2S,3R,4S,5S)-5-((6-((4-azido-2-nitrophenyl)amino)hexyl)amino)-1-(hydroxymethyl)cyclohexane-1,2,3,4-tetraol]
> 1000 µM | COCCCCCCCCCN[C@H]1C[C@](O)(CO)[C@@H](O)[C@H](O)[C@H]1O [Compound 3, (1S,2S,3R,4S,5S)-1-(hydroxymethyl)-5-((9-methoxynonyl)amino)cyclohexane-1,2,3,4-tetraol]
776 µM | O=[N+]([O-])c1cc(-n2ccnn2)ccc1NCCCCCCN[C@H]1C[C@](O)(CO)[C@@H](O)[C@H](O)[C@H]1O [Compound 6, (1S,2S,3R,4S,5S)-1-(hydroxymethyl)-5-((6-((2-nitro-4-(1H-1,2,3-triazol-1-yl)phenyl)amino)hexyl)amino)cyclohexane-1,2,3,4-tetraol]
103 µM | [N-]=[N+]=Nc1ccc(NCCCCCN[C@H]2C[C@](O)(CO)[C@@H](O)[C@H](O)[C@H]2O)c([N+](=O)[O-])c1 [Compound 9, (1S,2S,3R,4S,5S)-5-((5-((4-azido-2-nitrophenyl)amino)pentyl)amino)-1-(hydroxymethyl)cyclohexane-1,2,3,4-tetraol]
